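Cells were grown in 96-well plates and exposed to each compound for 48 hours at five concentrations; endpoints were interpolated linearly between bracketing concentrations, or set to the highest concentration if not reached. GI50 is the concentration that inhibits growth by half.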 The source made the active and inactive calls. Cut-off read from the data, not from the text of the source: active = GI50 up to about 1.1 µM and inactive = higher.
What was measured:
Test in all cases: NCI tumour cell line growth inhibition, 48 h
A498 = tested on: A498
A549 = tested on: A549
CAKI-1 = tested on: CAKI-1
EKVX = tested on: EKVX
HCT-116 = tested on: HCT-116
M14 = tested on: M14
MCF7 = tested on: MCF7
MDA-MB-435 = tested on: MDA-MB-435
MDA-N = tested on: MDA-N
MOLT-4 = tested on: MOLT-4
Malme-3M = tested on: Malme-3M
NCI-H460 = tested on: NCI-H460
NCI-H522 = tested on: NCI-H522
OVCAR-5 = tested on: OVCAR-5
RPMI-8226 = tested on: RPMI-8226
SF-539 = tested on: SF-539
SK-MEL-28 = tested on: SK-MEL-28
SK-OV-3 = tested on: SK-OV-3
SNB-19 = tested on: SNB-19
U-251 = tested on: U-251

Compound | GI50 (A498) | GI50 (A549) | GI50 (CAKI-1) | GI50 (EKVX) | GI50 (HCT-116) | GI50 (M14) | GI50 (MCF7) | GI50 (MDA-MB-435) | GI50 (MDA-N) | GI50 (MOLT-4) | GI50 (Malme-3M) | GI50 (NCI-H460) | GI50 (NCI-H522) | GI50 (OVCAR-5) | GI50 (RPMI-8226) | GI50 (SF-539) | GI50 (SK-MEL-28) | GI50 (SK-OV-3) | GI50 (SNB-19) | GI50 (U-251)
CC(C)(C)N(Cc1ccc2c(c1)OCO2)C(=O)/C=C\[S+]([O-])c1ccccc1 (stereo not given) | 9.48 µM (inactive) | 4.6 µM (inactive) | 4.53 µM (inactive) | 7.29 µM (inactive) | 2.74 µM (inactive) | 2.28 µM (inactive) | 2.77 µM (inactive) | 2.12 µM (inactive) | 2.4 µM (inactive) | 2.3 µM (inactive) | 1.91 µM (inactive) | 4.19 µM (inactive) | 0.516 µM (active) | 10.7 µM (inactive) | 1.67 µM (inactive) | 2.3 µM (inactive) | 7.89 µM (inactive) | 3.01 µM (inactive) | 7.67 µM (inactive) | 4.33 µM (inactive)
COc1cc([C@@H]2c3cc4c(cc3[C@H](OC3OC5COC(C(C)C)OC5C(O)C3O)C3COC(=O)[C@@H]32)OCO4)cc(OC)c1OC (stereo not given in full) | 2.89 µM (inactive) | 3.96 µM (inactive) | 4.15 µM (inactive) | 10.2 µM (inactive) | 2.83 µM (inactive) | 5.24 µM (inactive) | 3.38 µM (inactive) | 4.37 µM (inactive) | 2.18 µM (inactive) | 4.84 µM (inactive) | 4.57 µM (inactive) | 2.34 µM (inactive) | 3.24 µM (inactive) | 10.3 µM (inactive) | 5.71 µM (inactive) | 3.6 µM (inactive) | > 100 µM (inactive) | 6.32 µM (inactive) | 6.19 µM (inactive) | 3.93 µM (inactive)
O=C1OC2(c3ccc(O)cc3Oc3cc(O)ccc32)c2c1c(-c1ccccc1)c(-c1ccccc1)c(-c1ccccc1)c2-c1ccccc1 | 19.7 µM (inactive) | 34.5 µM (inactive) | 25.1 µM (inactive) | 25.8 µM (inactive) | 24.4 µM (inactive) | 18.2 µM (inactive) | 17.1 µM (inactive) | 17.2 µM (inactive) | 21.8 µM (inactive) | 23.9 µM (inactive) | 23.5 µM (inactive) | 17.7 µM (inactive) | 18.2 µM (inactive) | 20.4 µM (inactive) | 27.7 µM (inactive) | 22.9 µM (inactive) | 20.8 µM (inactive) | 39 µM (inactive) | 18.7 µM (inactive) | 17.7 µM (inactive)
N#C/C(=C/NC(=S)NCc1ccccc1)C(N)=O | > 100 µM (inactive) | > 100 µM (inactive) | > 100 µM (inactive) | > 100 µM (inactive) | > 100 µM (inactive) | > 100 µM (inactive) | > 100 µM (inactive) | > 100 µM (inactive) | > 100 µM (inactive) | > 100 µM (inactive) | > 100 µM (inactive) | > 100 µM (inactive) | > 100 µM (inactive) | > 100 µM (inactive) | > 100 µM (inactive) | > 100 µM (inactive) | > 100 µM (inactive) | > 100 µM (inactive) | > 100 µM (inactive) | > 100 µM (inactive)
O=C(CSc1nc2ccc([N+](=O)[O-])cc2s1)c1ccc2ccccc2c1 | > 100 µM (inactive) | > 100 µM (inactive) | > 100 µM (inactive) | > 100 µM (inactive) | > 100 µM (inactive) | > 100 µM (inactive) | > 100 µM (inactive) | > 100 µM (inactive) | > 100 µM (inactive) | 74.6 µM (inactive) | > 100 µM (inactive) | > 100 µM (inactive) | > 100 µM (inactive) | > 100 µM (inactive) | > 100 µM (inactive) | 62.2 µM (inactive) | > 100 µM (inactive) | > 100 µM (inactive) | 50.2 µM (inactive) | > 100 µM (inactive)
O=C1N(CN2CCOCC2)CN(CN2CCOCC2)C(=O)N1Cc1ccccc1 | > 100 µM (inactive) | 40.4 µM (inactive) | 29.2 µM (inactive) | 38.5 µM (inactive) | 22.8 µM (inactive) | 19.2 µM (inactive) | 29.4 µM (inactive) | 20 µM (inactive) | 18.2 µM (inactive) | 20.1 µM (inactive) | 15.2 µM (inactive) | 32.6 µM (inactive) | 13.3 µM (inactive) | > 100 µM (inactive) | 26.5 µM (inactive) | 19.2 µM (inactive) | 19.3 µM (inactive) | > 100 µM (inactive) | > 100 µM (inactive) | 23.3 µM (inactive)

— ChEMBL document CHEMBL1201862, “PubChem BioAssay data set” (2004)
